Measured values as given in patent US8598187B2, “Arylamide pyrimidone compounds” (Sanofi, priority 2007, dated 2013).

Molecular target: GSK3β (Homo sapiens, UniProt P49841)
Assay: Inhibitory activity against GSK3β (33P-ATP phosphorylation of prephosphorylated GS1 peptide, two protocols)
Format: biochemical
Settings: protocol 1 or 2 not specified
Protocol: Inhibitory Activity of the Medicament of the Present Invention Against GSK3β
Two different protocols can be used.
In a first protocol: 7.5 μM of prephosphorylated GS1 peptide and 10 μM ATP (containing 300,000 cpm of ^33P-ATP) were incubated in 25 mM Tris-HCl, pH 7.5, 0.6 mM DTT, 6 mM MgCl2, 0.6 mM EGTA, 0.05 mg/ml BSA buffer for 1 hour at room temperature in the presence of GSK3beta (total reaction volume: 100 microliters).
In a second protocol: 4.1 μM of prephosphorylated GS1 peptide and 42 μM ATP (containing 260,000 cpm ^33P-ATP) were incubated in 80 mM Mes-NaOH, pH 6.5, 1 mM Mg acetate, 0.5 mM EGTA, 5 mM 2-mercaptoethanol, 0.02% Tween 20, 10% glycerol buffer for 2 hours at room temperature in the presence of GSK3beta. Inhibitors were solubilized in DMSO (final solvent concentration in the reaction medium, 1%).
The reaction was stopped with 100 microliters of a solution made of 25 g polyphosphoric acid (85% P2O5), 126 ml 85% H3PO4, H2O to 500 ml and then diluted to 1:100 before use. An aliquot of the reaction mixture was then transferred to Whatman P81 cation exchange filters and rinsed with the solution described above. Incorporated ^33P radioactivity was determined by liquid scintillation spectrometry.
The phosphorylated GS-1 peptide had the following sequence: NH2-[…](P)EDEE-COOH. SEQ ID NO: 1 (Woodgett, J. R. (1989) Analytical Biochemistry 180, 237-241. […]

GSK3β, sequence (P49841 whole entry): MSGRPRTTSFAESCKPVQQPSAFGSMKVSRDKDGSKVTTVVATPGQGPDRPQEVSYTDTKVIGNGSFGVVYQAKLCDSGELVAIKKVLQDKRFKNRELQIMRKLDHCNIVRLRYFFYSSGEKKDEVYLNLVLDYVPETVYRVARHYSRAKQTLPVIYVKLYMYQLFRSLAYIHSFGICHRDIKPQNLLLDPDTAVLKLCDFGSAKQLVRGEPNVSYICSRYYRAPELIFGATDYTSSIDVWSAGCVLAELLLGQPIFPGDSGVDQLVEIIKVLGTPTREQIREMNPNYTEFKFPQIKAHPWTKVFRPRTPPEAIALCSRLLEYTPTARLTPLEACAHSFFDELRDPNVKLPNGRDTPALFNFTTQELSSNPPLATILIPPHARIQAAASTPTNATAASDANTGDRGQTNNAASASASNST

- IC50: 0.085 µM
SMILES: COc1cc(Cl)ccc1C(=O)NCCc1nc(-c2ccncn2)cc(=O)n1C [No. 1]
